# Measurements as given in ChEMBL document CHEMBL5107999, “Synthesis and biological evaluation of 4-hydroxy-methylpiperidinyl-N-benzyl-acylarylhydrazone hybrids designed as novel multifunctional drug candidates for Alzheimer's disease” (Bioorg Med Chem, 2022).
# pIC50, pKi: −log10 of the molar value. Active and inactive are the calls of the source. No cut-off for these calls is given here.
# Columns and labels:
# Cholinesterase = Cholinesterase (Equus caballus, UniProt P81908); assay: Inhibition of equine serum BuChE using butyrylthiocholine as substrate preincubated for 10 mins followed by substrate addition by spectrophotometric based Ellman's method
# HT-29 = assay: Cytotoxicity against human HT-29 cells assessed as reduction in cell viability upto 30 uM incubated for 24 hrs by calcein/propidium iodide assay; type: toxicity, cell-based; conditions: ht-29, 24 h
# SH-SY5Y [1] = assay: Cytotoxicity against human SH-SY5Y cells assessed as reduction in cell viability at 20 to 80 uM incubated for 24 hrs by MTT assay; type: toxicity, cell-based; conditions: dose 20-80 µM
# Acetylcholinesterase [2] = target: T1, Acetylcholinesterase (Electrophorus electricus, UniProt O42275); assay: Inhibition of Electrophorus electricus AchE assessed as inhibition constant
# Acetylcholinesterase [3] = target: T1, Acetylcholinesterase; assay: Inhibition of Electrophorus electricus AchE using acetylthiocholine iodide as substrate preincubated for 10 mins followed by substrate addition by spectrophotometric based Ellman's method
# [4] = Selectivity ratio, ratio of IC50 for equine serum BuChE to IC50 for Electrophorus electricus AchE
# SH-SY5Y [5] = assay: Antioxidant activity against t-BOOH induced neurotoxicity in human SH-SY5Y cells at 10 uM; type: functional
# SH-SY5Y [6] = assay: Neuroprotective activity against t-BOOH induced neurotoxicity in human SH-SY5Y cells assessed as inhibition of ROS formation at 10 uM incubated for 30 mins by H2DCF-DA fluorescence assay; type: functional, cell-based
# SH-SY5Y [7] = assay: Cytotoxicity against human SH-SY5Y cells assessed as reduction in cell viability upto 40 uM incubated for 24 hrs by MTT assay; type: toxicity, cell-based
# [8] = target: Acetylcholinesterase (Electrophorus electricus) (UniProt O42275); assay: Inhibition of Electrophorus electricus AchE using acetylthiocholine iodide as substrate at 30 uM preincubated for 10 mins followed by substrate addition by spectrophotometric based Ellman's method
# [9] = target: Amyloid-beta precursor protein (Homo sapiens) (UniProt P05067); assay: Inhibition of amyloid beta (1 to 42) (unknown origin) self aggregation at 75 uM by Thioflavin T based fluorescence assay
# SH-SY5Y [10] = assay: Neuroprotective activity against amyloid beta (1 to 42) induced neurotoxicity in human SH-SY5Y cells assessed as increase in cell viability at 5 to 10 uM incubated for 4 hrs by MTT assay; type: functional, cell-based; conditions: dose 5-10 µM
# SH-SY5Y [11] = assay: Neuroprotective activity against t-BOOH induced neurotoxicity in human SH-SY5Y cells assessed as increase in cell viability at 2.5 to 10 uM incubated for 4 hrs by MTT assay; type: functional, cell-based; conditions: dose 2.5-10 µM
# SH-SY5Y [12] = assay: Antioxidant activity against t-BOOH induced neurotoxicity in human SH-SY5Y cells; type: functional, cell-based
# SH-SY5Y [13] = assay: Neuroprotective activity against t-BOOH induced neurotoxicity in human SH-SY5Y cells assessed as inhibition of ROS formation at 2.5 to 10 uM incubated for 30 mins by H2DCF-DA fluorescence assay; type: functional, cell-based; conditions: dose 2.5-10 µM
# Cholinesterase, sequence (P81908 whole entry): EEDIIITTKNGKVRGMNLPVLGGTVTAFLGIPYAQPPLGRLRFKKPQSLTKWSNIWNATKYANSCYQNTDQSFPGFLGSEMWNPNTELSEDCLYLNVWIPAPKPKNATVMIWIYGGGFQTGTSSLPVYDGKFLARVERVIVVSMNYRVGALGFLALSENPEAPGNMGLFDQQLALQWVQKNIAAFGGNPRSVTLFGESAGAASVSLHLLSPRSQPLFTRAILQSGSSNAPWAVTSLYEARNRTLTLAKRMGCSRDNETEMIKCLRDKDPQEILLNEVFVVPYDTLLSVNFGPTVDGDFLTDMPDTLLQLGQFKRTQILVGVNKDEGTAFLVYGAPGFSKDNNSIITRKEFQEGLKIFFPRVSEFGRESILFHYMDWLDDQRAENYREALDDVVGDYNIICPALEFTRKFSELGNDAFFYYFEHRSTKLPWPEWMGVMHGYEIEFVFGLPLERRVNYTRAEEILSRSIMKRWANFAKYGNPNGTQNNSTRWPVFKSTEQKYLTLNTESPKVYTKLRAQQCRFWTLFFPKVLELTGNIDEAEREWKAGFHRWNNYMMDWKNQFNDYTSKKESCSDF
# T1 sequence (O42275 whole entry): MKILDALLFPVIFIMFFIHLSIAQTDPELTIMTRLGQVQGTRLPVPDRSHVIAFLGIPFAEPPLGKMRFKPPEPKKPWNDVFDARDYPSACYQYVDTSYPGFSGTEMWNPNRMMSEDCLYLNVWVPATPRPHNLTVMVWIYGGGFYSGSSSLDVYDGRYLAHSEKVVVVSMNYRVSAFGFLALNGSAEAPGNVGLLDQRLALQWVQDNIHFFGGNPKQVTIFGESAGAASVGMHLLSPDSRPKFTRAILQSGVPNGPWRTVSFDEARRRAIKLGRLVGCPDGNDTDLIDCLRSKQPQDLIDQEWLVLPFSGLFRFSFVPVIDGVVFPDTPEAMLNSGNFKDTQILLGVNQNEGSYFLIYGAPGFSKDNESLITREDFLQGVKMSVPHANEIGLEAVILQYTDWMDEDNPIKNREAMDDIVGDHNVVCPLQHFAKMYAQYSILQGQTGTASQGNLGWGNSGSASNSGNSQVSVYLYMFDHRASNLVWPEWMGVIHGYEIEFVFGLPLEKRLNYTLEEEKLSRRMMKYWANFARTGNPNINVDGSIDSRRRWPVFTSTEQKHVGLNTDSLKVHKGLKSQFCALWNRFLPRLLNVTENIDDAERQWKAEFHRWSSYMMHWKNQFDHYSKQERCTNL
# Amyloid-beta precursor protein (Homo sapiens), sequence (P05067 whole entry): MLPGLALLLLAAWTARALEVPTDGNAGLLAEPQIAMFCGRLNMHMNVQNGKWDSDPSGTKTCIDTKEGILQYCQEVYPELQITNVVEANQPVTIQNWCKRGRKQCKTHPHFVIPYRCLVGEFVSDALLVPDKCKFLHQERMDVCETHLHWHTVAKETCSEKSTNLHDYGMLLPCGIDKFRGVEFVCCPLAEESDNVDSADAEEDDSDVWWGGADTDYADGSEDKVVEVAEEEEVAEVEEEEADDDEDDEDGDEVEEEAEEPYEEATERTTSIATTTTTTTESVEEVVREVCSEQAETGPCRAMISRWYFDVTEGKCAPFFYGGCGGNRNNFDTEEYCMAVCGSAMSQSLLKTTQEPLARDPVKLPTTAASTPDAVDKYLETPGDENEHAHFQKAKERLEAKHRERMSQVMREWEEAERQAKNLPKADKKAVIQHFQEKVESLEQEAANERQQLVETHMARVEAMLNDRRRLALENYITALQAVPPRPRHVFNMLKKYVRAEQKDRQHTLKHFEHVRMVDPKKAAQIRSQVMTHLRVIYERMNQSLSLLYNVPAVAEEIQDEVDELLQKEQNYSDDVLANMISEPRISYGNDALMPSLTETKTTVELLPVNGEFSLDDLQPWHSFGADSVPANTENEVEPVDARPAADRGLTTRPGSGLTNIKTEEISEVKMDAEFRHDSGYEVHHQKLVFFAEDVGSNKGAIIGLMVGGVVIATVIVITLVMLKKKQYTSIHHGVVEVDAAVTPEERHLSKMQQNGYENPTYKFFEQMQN
# Acetylcholinesterase (Electrophorus electricus), sequence (O42275 24-633 limits assumed): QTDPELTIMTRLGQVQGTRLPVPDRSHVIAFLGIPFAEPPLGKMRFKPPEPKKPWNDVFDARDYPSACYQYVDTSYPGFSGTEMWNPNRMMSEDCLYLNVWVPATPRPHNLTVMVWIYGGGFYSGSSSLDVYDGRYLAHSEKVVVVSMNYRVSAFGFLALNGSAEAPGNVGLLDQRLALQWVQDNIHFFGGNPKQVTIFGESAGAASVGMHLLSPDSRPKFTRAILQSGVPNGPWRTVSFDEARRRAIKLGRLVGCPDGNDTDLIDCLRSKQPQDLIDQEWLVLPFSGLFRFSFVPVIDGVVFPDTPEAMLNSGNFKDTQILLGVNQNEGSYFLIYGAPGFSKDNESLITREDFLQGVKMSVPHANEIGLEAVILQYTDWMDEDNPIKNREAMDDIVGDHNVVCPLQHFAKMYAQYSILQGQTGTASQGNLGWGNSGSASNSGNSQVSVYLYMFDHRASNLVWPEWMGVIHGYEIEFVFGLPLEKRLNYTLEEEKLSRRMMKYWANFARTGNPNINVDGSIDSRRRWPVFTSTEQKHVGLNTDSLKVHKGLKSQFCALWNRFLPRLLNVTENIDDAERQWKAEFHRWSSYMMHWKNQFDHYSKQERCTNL
smiles,measurement,setting,value
O=C(N/N=C/c1ccc(N2CCCCC2)cc1)c1ccc(CN2CCC(CO)CC2)cc1,pIC50,Cholinesterase,< 4.52
same,Activity,HT-29,Non-Toxic
same,Activity,SH-SY5Y [1],Toxic
same,pKi,Acetylcholinesterase [2],5.20
same,pIC50,Acetylcholinesterase [3],4.92
same,Ratio IC50,[4],> 2.5
COc1ccc(/C=N/NC(=O)c2ccc(CN3CCC(CO)CC3)cc2)cc1,pIC50,Cholinesterase,< 4.52
same,Activity,HT-29,Non-Toxic
same,pIC50,Acetylcholinesterase [3],4.82
same,Ratio IC50,[4],> 2
O=C(N/N=C/c1cccc(Cl)c1)c1ccc(CN2CCC(CO)CC2)cc1,inhibition at 10 µM,SH-SY5Y [5],46%
same,pIC50,Cholinesterase,4.30
same,Activity,HT-29,Non-Toxic
same,pKi,Acetylcholinesterase [2],5.71
same,pIC50,Acetylcholinesterase [3],5.48
same,Activity,SH-SY5Y [6],Active
same,Ratio IC50,[4],15
same,Activity,SH-SY5Y [7],Non-Toxic
O=C(N/N=C/c1ccc(Cl)cc1)c1ccc(CN2CCC(CO)CC2)cc1,inhibition at 10 µM,SH-SY5Y [5],24.5%
same,pIC50,Cholinesterase,< 4.52
same,Activity,HT-29,Non-Toxic
same,pKi,Acetylcholinesterase [2],5.45
same,pIC50,Acetylcholinesterase [3],5.25
same,Activity,SH-SY5Y [6],Active
same,Ratio IC50,[4],> 5.4
same,Activity,SH-SY5Y [7],Non-Toxic
O=C(N/N=C/c1ccc(F)cc1)c1ccc(CN2CCC(CO)CC2)cc1,pIC50,Cholinesterase,< 4.52
same,Activity,HT-29,Non-Toxic
same,pIC50,Acetylcholinesterase [3],4.58
same,Ratio IC50,[4],> 1.1
O=C(N/N=C/c1cccc(F)c1)c1ccc(CN2CCC(CO)CC2)cc1,pIC50,Cholinesterase,< 4.52
same,Activity,HT-29,Non-Toxic
same,pIC50,Acetylcholinesterase [3],5.09
same,Ratio IC50,[4],> 3.6
O=C(N/N=C/c1ccc(O)cc1)c1ccc(CN2CCC(CO)CC2)cc1,inhibition,[8],45%
same,pIC50,Cholinesterase,< 4.52
same,Activity,HT-29,Non-Toxic
same,pIC50,Acetylcholinesterase [3],4.60
same,Ratio IC50,[4],> 1.2
COc1ccccc1/C=N/NC(=O)c1ccc(CN2CCC(CO)CC2)cc1,pIC50,Cholinesterase,4.89
same,Activity,HT-29,Non-Toxic
same,pIC50,Acetylcholinesterase [3],4.87
same,Ratio IC50,[4],1
O=C(N/N=C/c1cccc(O)c1)c1ccc(CN2CCC(CO)CC2)cc1,pIC50,Cholinesterase,< 4.52
same,Activity,HT-29,Non-Toxic
same,pIC50,Acetylcholinesterase [3],4.86
same,Ratio IC50,[4],> 2.2
O=C(N/N=C/c1ccccc1Cl)c1ccc(CN2CCC(CO)CC2)cc1,pIC50,Cholinesterase,4.89
same,Activity,HT-29,Non-Toxic
same,pIC50,Acetylcholinesterase [3],5.05
same,Ratio IC50,[4],1.4
O=C(N/N=C/c1ccccc1F)c1ccc(CN2CCC(CO)CC2)cc1,pIC50,Cholinesterase,< 4.52
same,Activity,HT-29,Non-Toxic
same,pIC50,Acetylcholinesterase [3],4.92
same,Ratio IC50,[4],> 2.5
O=C(N/N=C/c1ccccc1O)c1ccc(CN2CCC(CO)CC2)cc1,inhibition at 10 µM,SH-SY5Y [5],67.1%
same,inhibition,[9],30%
same,Activity,SH-SY5Y [10],Active
same,Activity,SH-SY5Y [11],Active
same,pIC50,Cholinesterase,< 4.52
same,Activity,HT-29,Non-Toxic
same,Activity,SH-SY5Y [1],Toxic
same,pIC50,SH-SY5Y [12],5.13
same,pKi,Acetylcholinesterase [2],5.42
same,pIC50,Acetylcholinesterase [3],5.23
same,Ratio IC50,[4],> 5.1
same,Activity,SH-SY5Y [13],Active
